# Results published in patent US20240122933A1, “USE OF ISOQUINOLINE-1,5-DIAMINES FOR WOUND HEALING” (Lutris Pharma Ltd., priority 2021, published 2024).
# B1: Becaplermin (protein, UniProt P01127 82-190, looked up)
# Platelet-derived growth …: SLGSLTIAEPAMIAECKTRTEVFEISRRLIDRTNANFLVWPPCVEVQRCSGCCNNRNVQCRPTQVQLRPVQVRKIEIVRKKPIFKKATVTLEDHLACKCETVAAARPVT
# notes: recombinant human platelet-derived growth factor, FDA-approved for promoting healing of diabetic foot ulcers
# Columns and labels:
# [1] = test system: Mitogen-Activated Protein Kinase (MAPK or ERK); experiment: MAPK (ERK phosphorylation) activity screen of BRaf inhibitors of Formula (I) vs. reference C-1; type: cell-based; conditions: MAPK activity of compound relative to reference compound C-1
# Source text: The BRaf inhibitors of this disclosure were screened for phosphorylation of ERK (MAPK).
# (§1) The chemical structures, synthetic schemes and the synthetic procedures for each of the compounds of Formula (I) of this disclosure, as well as their MAPK (ERK) and the phototoxicity studies of LUT-014 were detailed in Shelach N., U.S. Patent Application Publication No. U.S.2019389862, which is incorporated herein in its entirety.
# [2] = Phototoxicity: Photo-Irritation Factor (PIF) or Mean Photo Effect (MPE); type: cell-based
# Method: The level of phototoxicity was determined by measuring a Photo-Irritation Factor (PIF) or a Mean Photo Effect (MPE) of one of the compounds of Formula (I), namely LUT-014 (R=3-(trifluoromethoxy)phenyl).
# as §1
# wound = conditions: given alone; cited from earlier work
Molecule,LUT/C1 MAPK Ratios [1],other results
Cc1ccc2c(Nc3cccc(OC(F)(F)F)c3)nccc2c1Nc1ncccc1-c1ncnc2[nH]cnc12 [LUT-014],2.9,Photo-Irritation Factor (PIF) [2]: less than 2; phototoxicity [2]: low phototoxicity
Cc1ccc2c(Nc3cc(C(C)(C)C)nn3C)nccc2c1Nc1ncccc1-c1ncnc2nc[nH]c12 [LUT-013],3.4,–
Cc1ccc2c(Nc3ccc(I)cc3F)nccc2c1Nc1ncccc1-c1ncnc2nc[nH]c12 [LUT-016],2.0,–
Cc1ccc2c(Nc3ccc(F)c(Cl)c3)nccc2c1Nc1ncccc1-c1ncnc2[nH]cnc12 [LUT-015],2.1,–
C#Cc1cccc(Nc2nccc3c(Nc4ncccc4-c4ncnc5nc[nH]c45)c(C)ccc23)c1 [LUT-012],0.7,–
Cc1ccc2c(Nc3cccc(S(N)(=O)=O)c3)nccc2c1Nc1ncccc1-c1ncnc2[nH]cnc12 [LUT-020],1.0,–
Cc1ccc2c(Nc3ccc(Cl)c(C(F)(F)F)c3)nccc2c1Nc1ncccc1-c1ncnc2nc[nH]c12 [LUT-017],3.5,–
B1,–,effect in promoting wound healing (wound): only a modest beneficial effect
